Experimental data published in the CombiSolv-Exp solvation set (Vermeire and Green 2021).

Experiment: solvent given as SMILES

C=C(C)C1CCC(C)C2=C(C1)C(C)CC2 (centres undefined)
Details	solvation free energy, 298 K [kJ/mol]
in O	-0.0418

Cc1cccc(C(C)C)c1
Details	solvation free energy, 298 K [kJ/mol]
in O	-3.01

O=[N+]([O-])c1cccc(O)c1
Details	solvation free energy, 298 K [kJ/mol]
in CCCCCC	-32.6
in CCCCCCC	-32.3
in CCCCCCCC	-32.8
in CCCCCCCCCC	-32.4
in O	-40.3

CCCC#N
Details	solvation free energy, 298 K [kJ/mol]
in C=CCCCCCCCCCCCCCC	-14.8
in CC(C)(C)O	-19.5
in CC(C)CO	-19.1
in CC(C)O	-19.2
in CCC(C)O	-19.1
in CCCCCC	-15.7
in CCCCCCC	-15.4
in CCCCCCCCCCCCCCCC	-13.9
in CCCCCCCCCCO	-16.4
in CCCCCCCCCO	-17
in CCCCCCCCO	-17.7
in CCCCCCCO	-18.1
in CCCCCCO	-18.1
in CCCCCO	-18.7
in CCCCO	-19.3
in CO	-21.8
in O	-15.2
in [2H]O[2H]	-15

Cc1cc(O)ccc1Cl
Details	solvation free energy, 298 K [kJ/mol]
in O	-28.4

[2H][2H]
Details	solvation free energy, 298 K [kJ/mol]
in Brc1ccccc1	7.36
in C1CCOC1	6.15
in C1COCCO1	7.2
in CC(C)(C)O	6.11
in CC(C)CC(C)(C)C	5.31
in CC(C)CO	6.4
in CCC(C)O	6.44
in CCCCCCC	5.31
in CCCCCCCC	5.61
in CCCCO	6.4
in Clc1ccccc1	6.9
in O	9.87
in O=C1CCCC1	7.11
in O=C1CCCCC1	7.24

Nc1cccc2ccccc12
Details	solvation free energy, 298 K [kJ/mol]
in CCCCCC	-37.1
in CCCCCCCC	-36.9
in O	-31

OC(F)(C(F)F)C(F)(F)F (centres undefined)
Details	solvation free energy, 298 K [kJ/mol]
in CO	-27.3

CCNc1nc(NCC)nc(SC)n1
Details	solvation free energy, 298 K [kJ/mol]
in O	-42.2

O=C(C(=O)c1ccccc1)c1ccccc1
Details	solvation free energy, 298 K [kJ/mol]
in C1CCOC1	-52.8
in C1COCCO1	-52.5
in CC(=O)N(C)C	-52.7
in CC(C)(C)O	-45.3
in CC(C)=O	-52.3
in CC(C)CC(C)(C)C	-42.6
in CC(C)CC(C)O	-45.2
in CC(C)CCO	-45.3
in CC(C)CO	-45.3
in CC(C)O	-45.4
in CC(C)OC(C)C	-47.1
in CC(C)OCCO	-49.4
in CCC(C)(C)O	-46.2
in CCC(C)=O	-52.2
in CCC(C)O	-45.6
in CCCC(C)O	-45.6
in CCCCC(CC)CO	-45.2
in CCCCCC	-43.1
in CCCCCCC	-43.2
in CCCCCCCC	-43.2
in CCCCCCCCC=CCCCCCCCC(=O)OCC(COC(=O)CCCCCCCC=CCCCCCCCC)OC(=O)CCCCCCCC=CCCCCCCCC	-46.7
in CCCCCCCCCC	-43.1
in CCCCCCCCCCO	-45.4
in CCCCCCCCO	-45.4
in CCCCCCCO	-45.6
in CCCCCCO	-45.7
in CCCCCO	-46
in CCCCCl	-50.8
in CCCCO	-46.1
in CCCCOC(C)=O	-51
in CCCCOCCO	-49.2
in CCCO	-46.3
in CCCOCCO	-49.5
in CCO	-46.6
in CCOC(C)=O	-51.6
in CCOCC	-49.5
in CCOCCO	-49.8
in CO	-46.7
in COC(C)(C)C	-49.2
in COC(C)=O	-52
in COC(C)CCO	-49.2
in ClC(Cl)(Cl)Cl	-50.3
in ClCCCl	-52.9
in Clc1ccccc1	-52
in Fc1ccccc1	-52
in O	-27.8
in O=C1CCCCC1	-52.6

COc1cc(NS(=O)(=O)c2ccc(N)cc2)nc(OC)n1
Details	solvation free energy, 298 K [kJ/mol]
in O	-79.1

C=C1C2CCC3C2C(C)(C)CCCC13C (centres undefined)
Details	solvation free energy, 298 K [kJ/mol]
in O	3.35
